# Laboratory results taken from ChEMBL document CHEMBL1147466 (Bioorg Med Chem Lett, 2004).
# pEC50: −log10 of the molar value.
# What was measured:
# [1] = molecular target: T1, Lysophosphatidic acid receptor 1 (Homo sapiens, UniProt Q92633); assay: Agonistic activity against lysophosphatidic acid receptor 1 using [35S]GTP-gamma-S as radioligand tested in vitro; type: functional
# [2] = molecular target: T2, Lysophosphatidic acid receptor 3 (Homo sapiens, UniProt Q9UBY5); assay: Agonistic activity against lysophosphatidic acid receptor 3 using [35S]GTP-gamma-S as radioligand tested in vitro; type: functional
# T2 sequence (Q9UBY5 whole entry): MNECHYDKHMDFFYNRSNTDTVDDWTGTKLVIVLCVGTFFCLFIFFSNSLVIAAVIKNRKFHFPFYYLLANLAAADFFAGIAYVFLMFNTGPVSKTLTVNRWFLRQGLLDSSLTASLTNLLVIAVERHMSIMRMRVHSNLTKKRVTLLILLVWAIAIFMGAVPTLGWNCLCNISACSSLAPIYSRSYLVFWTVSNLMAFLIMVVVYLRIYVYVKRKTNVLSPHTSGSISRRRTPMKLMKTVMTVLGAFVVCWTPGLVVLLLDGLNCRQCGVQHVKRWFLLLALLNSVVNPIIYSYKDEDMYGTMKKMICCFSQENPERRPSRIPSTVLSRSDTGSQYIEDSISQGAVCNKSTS
# [3] = molecular target: T1, Lysophosphatidic acid receptor 1; assay: Maximal efficacy to that of maximal efficacy of LPA against lysophosphatidic acid receptor 1 was determined in vitro
# [4] = molecular target: T3, Lysophosphatidic acid receptor 2 (Homo sapiens, UniProt Q9HBW0); assay: Agonistic activity against lysophosphatidic acid receptor 2 using [35S]GTP-gamma-S as radioligand tested in vitro; type: functional
# [5] = molecular target: T3, Lysophosphatidic acid receptor 2; assay: Maximal efficacy to that of maximal efficacy of LPA against lysophosphatidic acid receptor 2 was determined in vitro
# [6] = molecular target: T4, Lysophosphatidic acid receptor 3 (Homo sapiens) (UniProt Q9UBY5); assay: Maximal efficacy to that of maximal efficacy of LPA against lysophosphatidic acid receptor 3 was determined in vitro
# T4 sequence (whole entry): T2 sequence (Q9UBY5 whole entry)
# [7] = molecular target: T1, Lysophosphatidic acid receptor 1; assay: Agonistic activity against lysophosphatidic acid receptor 1 receptor using [35S]GTP-gamma-S as radioligand tested in vitro; type: functional
# T1 sequence (Q92633 whole entry): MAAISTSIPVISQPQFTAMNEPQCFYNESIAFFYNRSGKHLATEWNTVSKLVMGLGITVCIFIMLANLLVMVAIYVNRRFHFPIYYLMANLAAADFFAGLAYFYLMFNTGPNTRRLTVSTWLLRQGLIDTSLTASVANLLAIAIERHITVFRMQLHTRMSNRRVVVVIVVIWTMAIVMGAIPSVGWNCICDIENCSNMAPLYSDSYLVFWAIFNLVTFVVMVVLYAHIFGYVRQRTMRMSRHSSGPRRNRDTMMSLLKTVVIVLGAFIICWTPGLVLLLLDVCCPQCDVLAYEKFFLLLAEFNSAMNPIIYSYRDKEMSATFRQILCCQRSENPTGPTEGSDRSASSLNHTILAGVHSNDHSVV
# T3 sequence (Q9HBW0 whole entry): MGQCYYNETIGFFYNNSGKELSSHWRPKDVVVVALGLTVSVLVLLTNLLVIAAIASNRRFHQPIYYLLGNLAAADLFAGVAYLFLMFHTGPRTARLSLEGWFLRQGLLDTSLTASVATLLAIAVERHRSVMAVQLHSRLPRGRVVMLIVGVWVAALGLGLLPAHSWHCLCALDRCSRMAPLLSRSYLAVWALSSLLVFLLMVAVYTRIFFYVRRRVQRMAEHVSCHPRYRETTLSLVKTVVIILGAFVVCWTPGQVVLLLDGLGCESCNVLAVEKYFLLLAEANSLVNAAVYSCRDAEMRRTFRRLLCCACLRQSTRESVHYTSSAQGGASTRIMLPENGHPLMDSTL
Structure (SMILES),pEC50 [1],pEC50 [2],Emax [3] [%],pEC50 [4],Emax [5] [%],Emax [6] [%],pEC50 [7]
CCCCCCCC/C=C\CCCCCCCC(=O)NCCCP(=O)(O)O,5.71,< 5.30,50,< 5.30,–,–,–
CCCCCCCC/C=C\CCCCCCCC(=O)OC[C@@H](O)COP(=O)(O)O [LYSOPHOSPHATIDIC ACID],7.77,–,100,–,100,100,–
CCCCCCCC/C=C\CCCCCCCC(=O)NCCC(F)P(=O)(O)O (stereo unspecified),< 5.30,< 5.30,–,5.71,100,–,–
CCCCCCCC/C=C\CCCCCCCC(=O)NCCC(O)(P(=O)(O)O)P(=O)(O)O,< 5.30,< 5.30,–,< 5.30,–,–,–
CCCCCCCC/C=C\CCCCCCCC(=O)NCCC(=O)P(O)(O)=S,7.40,< 5.30,80,6.97,46,–,–

# Continued, values first:
pEC50 [1],pEC50 [2],Emax [3] [%],pEC50 [4],Emax [5] [%],Emax [6] [%],pEC50 [7],Structure (SMILES)
6.50,< 5.30,50,< 5.30,–,–,–,CCCCCCCC/C=C\CCCCCCCC(=O)NCCC(=S)P(=O)(O)O
6.66,< 5.30,80,5.96,90,–,–,CCCCCCCC/C=C\CCCCCCCC(=O)NCCC(=O)P(=O)(O)O
–,< 5.30,80,5.68,90,–,5.91,CCCCCCCC/C=C\CCCCCCCC(=O)NCCC(O)P(=O)(O)O (stereo unspecified)
–,–,100,–,110,–,–,CCCCCCCC/C=C\CCCCCCCC(=O)NCCOP(=O)(O)O
